Test results taken from article PMC6199744, “Development of Chemical Proteomics for the Folateome and Analysis of the Kinetoplastid Folateome” (ACS Infectious Diseases, 2018).
Like-named read-outs stand apart in the source and are kept apart here.

Legend:
Assay type in all cases: binding
[1] = biological target: T1, HeLa cell extract proteins (Homo sapiens, UniProt P60953); conditions: protein CDC42; HeLa
T1 construct: endogenous in cells; host or cells: HeLa cell extract

[2] = biological target: T2, HeLa cell extract proteins (Homo sapiens, UniProt P26640)
T2 construct: endogenous in cells; host or cells: HeLa cell extract
T2 sequence (P26640 1-1264): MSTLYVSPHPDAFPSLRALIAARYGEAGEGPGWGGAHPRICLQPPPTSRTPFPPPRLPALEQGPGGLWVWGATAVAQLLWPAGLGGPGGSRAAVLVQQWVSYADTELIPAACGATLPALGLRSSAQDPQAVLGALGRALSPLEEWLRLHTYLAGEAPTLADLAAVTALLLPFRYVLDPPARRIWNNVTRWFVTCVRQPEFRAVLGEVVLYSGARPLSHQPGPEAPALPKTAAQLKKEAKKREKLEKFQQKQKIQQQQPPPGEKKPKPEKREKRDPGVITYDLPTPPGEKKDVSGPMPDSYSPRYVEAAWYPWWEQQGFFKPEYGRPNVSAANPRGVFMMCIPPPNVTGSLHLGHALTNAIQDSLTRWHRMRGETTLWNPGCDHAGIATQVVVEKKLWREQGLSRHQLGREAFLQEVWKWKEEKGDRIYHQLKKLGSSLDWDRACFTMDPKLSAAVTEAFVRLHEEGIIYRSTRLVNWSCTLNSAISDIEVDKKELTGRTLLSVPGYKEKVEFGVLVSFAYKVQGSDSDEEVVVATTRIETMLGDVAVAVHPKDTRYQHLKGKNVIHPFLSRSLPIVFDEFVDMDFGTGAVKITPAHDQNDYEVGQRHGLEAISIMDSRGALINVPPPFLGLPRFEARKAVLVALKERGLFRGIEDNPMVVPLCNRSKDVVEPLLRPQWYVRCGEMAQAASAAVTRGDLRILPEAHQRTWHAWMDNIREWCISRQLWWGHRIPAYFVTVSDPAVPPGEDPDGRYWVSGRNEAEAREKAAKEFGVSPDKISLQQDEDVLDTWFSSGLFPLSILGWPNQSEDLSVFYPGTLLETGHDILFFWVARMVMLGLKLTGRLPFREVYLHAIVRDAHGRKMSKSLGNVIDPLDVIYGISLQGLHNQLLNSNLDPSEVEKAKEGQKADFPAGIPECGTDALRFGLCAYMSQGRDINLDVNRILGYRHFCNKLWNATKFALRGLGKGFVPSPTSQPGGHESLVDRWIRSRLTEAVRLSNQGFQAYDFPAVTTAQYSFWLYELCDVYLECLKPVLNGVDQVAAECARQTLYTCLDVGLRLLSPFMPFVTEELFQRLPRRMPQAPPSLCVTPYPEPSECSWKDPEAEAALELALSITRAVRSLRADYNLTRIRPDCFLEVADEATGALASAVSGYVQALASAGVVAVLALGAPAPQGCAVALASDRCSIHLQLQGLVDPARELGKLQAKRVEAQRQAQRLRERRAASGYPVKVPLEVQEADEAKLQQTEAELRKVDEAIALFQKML

[3] = biological target: T3, HeLa cell extract proteins (Homo sapiens, UniProt Q14157)
T3 construct: endogenous in cells; host or cells: HeLa cell extract
T3 sequence (Q14157 1-1087): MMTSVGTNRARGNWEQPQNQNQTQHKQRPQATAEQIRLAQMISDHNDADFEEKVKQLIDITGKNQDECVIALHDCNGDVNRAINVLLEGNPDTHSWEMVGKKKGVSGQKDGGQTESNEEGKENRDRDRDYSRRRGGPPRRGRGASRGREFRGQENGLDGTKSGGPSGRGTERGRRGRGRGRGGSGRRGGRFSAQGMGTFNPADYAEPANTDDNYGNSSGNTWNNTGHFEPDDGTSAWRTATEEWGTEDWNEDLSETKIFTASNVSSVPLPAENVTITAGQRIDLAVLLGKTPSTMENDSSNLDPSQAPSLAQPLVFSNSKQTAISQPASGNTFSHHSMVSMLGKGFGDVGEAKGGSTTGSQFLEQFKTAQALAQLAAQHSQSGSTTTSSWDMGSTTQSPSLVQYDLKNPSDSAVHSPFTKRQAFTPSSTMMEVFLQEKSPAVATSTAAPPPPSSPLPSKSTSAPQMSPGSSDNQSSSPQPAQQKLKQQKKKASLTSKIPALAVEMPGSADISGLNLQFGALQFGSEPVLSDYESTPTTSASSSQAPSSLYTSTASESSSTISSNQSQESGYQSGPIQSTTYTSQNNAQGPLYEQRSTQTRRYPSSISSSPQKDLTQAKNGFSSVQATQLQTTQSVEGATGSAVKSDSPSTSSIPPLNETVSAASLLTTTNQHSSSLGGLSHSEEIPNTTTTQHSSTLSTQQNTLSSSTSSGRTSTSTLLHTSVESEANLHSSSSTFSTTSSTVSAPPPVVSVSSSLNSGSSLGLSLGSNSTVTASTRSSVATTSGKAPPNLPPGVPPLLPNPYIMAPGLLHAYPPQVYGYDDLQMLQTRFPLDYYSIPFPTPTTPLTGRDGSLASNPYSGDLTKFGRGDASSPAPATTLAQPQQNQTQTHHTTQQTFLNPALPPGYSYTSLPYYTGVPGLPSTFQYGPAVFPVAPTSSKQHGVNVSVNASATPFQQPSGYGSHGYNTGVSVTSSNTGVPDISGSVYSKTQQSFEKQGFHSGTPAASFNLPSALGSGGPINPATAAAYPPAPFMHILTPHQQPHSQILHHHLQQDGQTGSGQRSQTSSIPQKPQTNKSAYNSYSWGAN

[4] = biological target: T4, HeLa cell extract proteins (Homo sapiens, UniProt Q9BPW8)
T4 construct: endogenous in cells; host or cells: HeLa cell extract
T4 sequence (Q9BPW8 36-284): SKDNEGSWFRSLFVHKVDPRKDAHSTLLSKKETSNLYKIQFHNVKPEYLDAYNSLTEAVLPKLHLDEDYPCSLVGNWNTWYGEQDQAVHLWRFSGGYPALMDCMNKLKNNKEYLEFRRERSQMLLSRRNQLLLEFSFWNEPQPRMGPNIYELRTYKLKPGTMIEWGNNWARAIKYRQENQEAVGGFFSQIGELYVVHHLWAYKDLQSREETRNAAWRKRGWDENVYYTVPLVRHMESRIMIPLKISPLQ

[5] = biological target: T5, HeLa cell extract proteins (Homo sapiens, UniProt Q96JI7)
T5 construct: endogenous in cells; host or cells: HeLa cell extract
T5 sequence (Q96JI7 whole entry): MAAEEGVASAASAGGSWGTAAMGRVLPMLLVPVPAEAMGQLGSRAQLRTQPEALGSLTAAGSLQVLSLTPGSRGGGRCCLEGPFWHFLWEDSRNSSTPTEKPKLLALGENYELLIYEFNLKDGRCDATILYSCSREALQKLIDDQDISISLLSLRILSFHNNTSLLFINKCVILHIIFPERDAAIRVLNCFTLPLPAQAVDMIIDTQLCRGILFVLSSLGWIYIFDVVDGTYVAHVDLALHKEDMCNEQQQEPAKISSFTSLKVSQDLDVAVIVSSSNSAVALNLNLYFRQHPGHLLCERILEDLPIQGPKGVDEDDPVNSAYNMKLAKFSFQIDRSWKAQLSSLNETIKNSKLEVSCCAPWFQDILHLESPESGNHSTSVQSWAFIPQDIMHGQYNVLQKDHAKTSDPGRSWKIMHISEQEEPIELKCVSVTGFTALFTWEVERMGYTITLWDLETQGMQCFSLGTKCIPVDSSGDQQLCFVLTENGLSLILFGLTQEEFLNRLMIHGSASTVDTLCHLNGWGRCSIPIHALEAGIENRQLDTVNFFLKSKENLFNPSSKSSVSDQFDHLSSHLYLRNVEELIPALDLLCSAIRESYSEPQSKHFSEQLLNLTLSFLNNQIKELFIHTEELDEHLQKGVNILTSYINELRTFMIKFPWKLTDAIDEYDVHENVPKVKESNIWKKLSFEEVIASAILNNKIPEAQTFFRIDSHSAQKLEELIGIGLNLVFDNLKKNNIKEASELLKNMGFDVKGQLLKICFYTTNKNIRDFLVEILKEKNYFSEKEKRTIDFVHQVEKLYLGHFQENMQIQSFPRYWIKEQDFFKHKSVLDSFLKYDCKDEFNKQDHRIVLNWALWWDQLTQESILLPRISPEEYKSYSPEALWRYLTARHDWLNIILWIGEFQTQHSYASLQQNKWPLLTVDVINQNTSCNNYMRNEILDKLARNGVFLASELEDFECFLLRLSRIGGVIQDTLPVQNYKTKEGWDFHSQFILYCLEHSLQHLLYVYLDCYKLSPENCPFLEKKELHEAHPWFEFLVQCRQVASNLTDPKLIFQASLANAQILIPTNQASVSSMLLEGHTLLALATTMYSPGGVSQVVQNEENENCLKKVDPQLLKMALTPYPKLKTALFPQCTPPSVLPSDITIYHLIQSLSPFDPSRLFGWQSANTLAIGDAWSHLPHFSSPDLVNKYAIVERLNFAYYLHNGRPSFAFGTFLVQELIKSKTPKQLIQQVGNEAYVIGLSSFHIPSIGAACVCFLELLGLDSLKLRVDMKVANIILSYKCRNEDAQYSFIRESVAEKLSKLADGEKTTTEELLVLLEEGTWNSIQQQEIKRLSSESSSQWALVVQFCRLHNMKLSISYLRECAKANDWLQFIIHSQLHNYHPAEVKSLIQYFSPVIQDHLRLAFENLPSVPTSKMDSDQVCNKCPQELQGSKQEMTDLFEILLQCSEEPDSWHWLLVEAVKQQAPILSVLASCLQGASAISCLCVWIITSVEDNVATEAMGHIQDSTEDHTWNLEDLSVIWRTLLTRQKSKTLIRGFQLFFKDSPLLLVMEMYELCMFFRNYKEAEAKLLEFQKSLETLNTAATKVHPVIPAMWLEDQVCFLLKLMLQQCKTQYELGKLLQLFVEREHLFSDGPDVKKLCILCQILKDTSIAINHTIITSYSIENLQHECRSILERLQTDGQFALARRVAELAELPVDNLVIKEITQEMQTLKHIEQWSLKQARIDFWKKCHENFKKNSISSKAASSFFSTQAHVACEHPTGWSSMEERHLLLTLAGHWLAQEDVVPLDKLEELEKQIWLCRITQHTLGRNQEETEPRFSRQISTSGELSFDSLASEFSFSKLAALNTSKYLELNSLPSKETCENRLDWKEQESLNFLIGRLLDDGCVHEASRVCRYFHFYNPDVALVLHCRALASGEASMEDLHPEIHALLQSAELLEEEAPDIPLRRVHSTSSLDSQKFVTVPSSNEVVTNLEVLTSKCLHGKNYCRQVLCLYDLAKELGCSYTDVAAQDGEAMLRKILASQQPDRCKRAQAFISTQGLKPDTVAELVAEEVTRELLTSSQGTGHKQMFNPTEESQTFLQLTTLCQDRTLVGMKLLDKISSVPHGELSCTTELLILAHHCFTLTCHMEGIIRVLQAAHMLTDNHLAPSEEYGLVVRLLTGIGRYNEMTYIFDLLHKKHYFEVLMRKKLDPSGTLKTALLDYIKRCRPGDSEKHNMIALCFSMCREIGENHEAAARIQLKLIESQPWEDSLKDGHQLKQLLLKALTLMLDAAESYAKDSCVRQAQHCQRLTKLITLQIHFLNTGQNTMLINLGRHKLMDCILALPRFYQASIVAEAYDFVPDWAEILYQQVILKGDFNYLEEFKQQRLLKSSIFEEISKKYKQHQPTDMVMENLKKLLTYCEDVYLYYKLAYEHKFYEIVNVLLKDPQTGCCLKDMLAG

[6] = biological target: T6, HeLa cell extract proteins (Homo sapiens, UniProt O15160)
T6 construct: endogenous in cells; host or cells: HeLa cell extract
T6 sequence (O15160 whole entry): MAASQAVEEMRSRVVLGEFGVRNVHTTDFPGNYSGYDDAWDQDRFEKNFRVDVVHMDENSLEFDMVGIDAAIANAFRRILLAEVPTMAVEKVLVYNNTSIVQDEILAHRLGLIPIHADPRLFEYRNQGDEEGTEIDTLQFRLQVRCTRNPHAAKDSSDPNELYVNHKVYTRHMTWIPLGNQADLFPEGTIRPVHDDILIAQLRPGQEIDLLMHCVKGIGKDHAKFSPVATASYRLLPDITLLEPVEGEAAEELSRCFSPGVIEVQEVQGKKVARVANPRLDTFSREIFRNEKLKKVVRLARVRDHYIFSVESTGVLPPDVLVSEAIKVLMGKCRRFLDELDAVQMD

T1 sequence (P60953 whole entry): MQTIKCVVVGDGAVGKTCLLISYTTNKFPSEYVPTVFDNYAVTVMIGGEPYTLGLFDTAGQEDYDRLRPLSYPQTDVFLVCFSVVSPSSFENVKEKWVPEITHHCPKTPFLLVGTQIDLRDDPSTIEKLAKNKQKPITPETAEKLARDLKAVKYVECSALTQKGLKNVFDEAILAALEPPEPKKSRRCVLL

Compound | fold changes relative to vehicle control [1] | fold changes relative to vehicle control ([2]; protein VARS, HeLa) | fold changes relative to vehicle control ([3]; HeLa, protein UBAP2L) | fold changes relative to vehicle control ([4]; HeLa, protein NIPSNAP1) | fold changes relative to vehicle control ([5]; protein SPG11, HeLa) | fold changes relative to vehicle control ([6]; protein POLR1C, HeLa) | also measured
Nc1nc2cccc(-c3ccccc3)c2n1Cc1ccc(Cl)c(Cl)c1 [compound 3] | 0.99 |  |  |  |  |  | 
CCCCCCOc1ccc(Cc2cnc(N)nc2N)cc1 [compound 1] | 1.11 |  |  |  |  |  | 
NCCCNc1ccc(C(=O)NC(CCC(=O)O)C(=O)O)cc1 (centres unmarked) [compound 7] |  | 0.91 | 1.08 | 1.03 | 1.54 | 0.95 | 
CCCCCCOc1cccc(Cc2cnc(N)nc2N)c1 [compound 2] | 1.45 |  |  |  |  |  | 
NCCOCCOCC(=O)Nc1nc2ncc(CNc3ccc(C(=O)NC(CCC(=O)O)C(=O)O)cc3)nc2c(=O)[nH]1 (centres unmarked) [compound 6] |  | 1 | 1.1 | 1.04 | 1.86 | 0.97 | 
Nc1nc2[nH]cc(CCc3ccc(C(=O)N[C@@H](CCC(=O)O)C(=O)O)cc3)c2c(=O)[nH]1 [PTX, pemetrexed] |  |  |  |  |  |  | fold changes relative to vehicle control [2]: 0.84; fold changes relative to vehicle control [3]: 0.98; fold changes relative to vehicle control [4]: 1.03; fold changes relative to vehicle control [5]: 1.38; fold changes relative to vehicle control [6]: 0.9
Nc1nc2c(c(=O)[nH]1)N(C=O)C(CNc1ccc(C(=O)N[C@@H](CCC(=O)O)C(=O)O)cc1)CN2 (some centres unmarked) [LEU, leucovorin] |  | 0.86 | 0.9 | 1.02 | 1.3 | 0.87 | 
